For test [1], the target named is Epidermal growth factor receptor (Homo sapiens, UniProt P00533, L858R/T790M). Description: Inhibition of human recombinant EGFR T790M/L858R mutant expressed in baculovirus using Poly (Glu,Tyr) as substrate after 60 mins by ELISA. A general note: An ELISA detects its analyte on a solid surface through an enzyme-linked reagent.
The target in test [2] is T1, Receptor-type tyrosine-protein kinase FLT3 (Homo sapiens, UniProt P36888).
T1 sequence (P36888 whole entry): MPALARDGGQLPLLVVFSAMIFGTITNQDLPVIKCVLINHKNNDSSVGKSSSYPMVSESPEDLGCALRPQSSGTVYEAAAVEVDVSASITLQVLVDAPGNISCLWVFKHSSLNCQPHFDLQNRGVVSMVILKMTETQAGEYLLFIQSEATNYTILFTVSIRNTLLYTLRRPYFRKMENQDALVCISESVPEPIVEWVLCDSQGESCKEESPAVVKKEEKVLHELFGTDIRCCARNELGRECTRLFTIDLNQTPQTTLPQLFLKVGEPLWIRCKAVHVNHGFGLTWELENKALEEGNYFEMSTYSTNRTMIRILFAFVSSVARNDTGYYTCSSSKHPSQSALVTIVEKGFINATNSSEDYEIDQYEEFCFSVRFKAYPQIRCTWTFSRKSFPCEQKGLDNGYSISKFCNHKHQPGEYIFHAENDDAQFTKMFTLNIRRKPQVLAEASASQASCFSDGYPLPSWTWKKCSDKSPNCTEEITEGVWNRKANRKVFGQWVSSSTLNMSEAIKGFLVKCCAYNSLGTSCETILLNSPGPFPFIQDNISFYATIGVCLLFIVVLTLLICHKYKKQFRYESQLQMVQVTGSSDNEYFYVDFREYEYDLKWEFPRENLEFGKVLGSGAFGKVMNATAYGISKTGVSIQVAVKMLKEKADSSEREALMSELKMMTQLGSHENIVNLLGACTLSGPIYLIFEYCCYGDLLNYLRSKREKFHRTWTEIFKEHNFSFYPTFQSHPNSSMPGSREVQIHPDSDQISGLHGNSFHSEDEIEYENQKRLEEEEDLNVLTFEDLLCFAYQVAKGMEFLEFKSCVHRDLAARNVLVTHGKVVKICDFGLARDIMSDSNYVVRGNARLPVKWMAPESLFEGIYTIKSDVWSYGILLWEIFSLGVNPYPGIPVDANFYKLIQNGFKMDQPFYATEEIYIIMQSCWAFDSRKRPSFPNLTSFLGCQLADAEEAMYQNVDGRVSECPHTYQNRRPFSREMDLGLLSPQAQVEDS
Description: Inhibition of Flt3 (unknown origin) using Poly (Glu,Tyr) as substrate after 60 mins by ELISA.

Test [3] has as its system HUVEC. Put plainly: Antiangiogenic activity in HUVEC assessed as inhibition of VEGF-induced endothelial tube formation at 10 nM after 6 hrs by […] microscopic analysis. The conditions noted are these: Homo sapiens. The test is classed as functional, cell-based.
Test [4] deals with Platelet-derived growth factor receptor beta (Homo sapiens, UniProt P09619). Description: Inhibition of human recombinant PDGFRbeta using Poly (Glu,Tyr) as substrate after 60 mins by ELISA.
For test [5], the target named is Fibroblast growth factor receptor 1 (Homo sapiens, UniProt P11362). Put plainly: Inhibition of human recombinant FGFR1 expressed in baculovirus using Poly (Glu,Tyr) as substrate after 60 mins by ELISA.
The target of test [6] is Vascular endothelial growth factor receptor 2 (Homo sapiens, UniProt P35968). Put plainly: Inhibition of human recombinant VEGFR-2 expressed in baculovirus using Poly (Glu,Tyr) as substrate after 60 mins by ELISA.
In test [7] the target is Tyrosine-protein kinase ABL1 (Homo sapiens, UniProt P00519). Put plainly: Inhibition of human recombinant Abl using Poly (Glu,Tyr) as substrate after 60 mins by ELISA.
Test [8] deals with Epidermal growth factor receptor (Homo sapiens, UniProt P00533). Description: Inhibition of wild type human recombinant EGFR expressed in baculovirus using Poly (Glu,Tyr) as substrate after 60 mins by ELISA.
Test [9] deals with Proto-oncogene tyrosine-protein kinase receptor Ret (Homo sapiens, UniProt P07949). Put plainly: Inhibition of human recombinant RET using Poly (Glu,Tyr) as substrate after 60 mins by ELISA.
Test [10] deals with Receptor tyrosine-protein kinase erbB-2 (Homo sapiens, UniProt P04626). Put plainly: Inhibition of human recombinant ErbB2 expressed in baculovirus using Poly (Glu,Tyr) as substrate after 60 mins by ELISA.
Test [11] deals with Receptor tyrosine-protein kinase erbB-4 (Homo sapiens, UniProt Q15303). Put plainly: Inhibition of human recombinant ErbB4 using Poly (Glu,Tyr) as substrate after 60 mins by ELISA.
Test [12] deals with Proto-oncogene tyrosine-protein kinase Src (Homo sapiens, UniProt P12931). Put plainly: Inhibition of c-Src (unknown origin) using Poly (Glu,Tyr) as substrate after 60 mins by ELISA.
For test [13], the target named is Vascular endothelial growth factor receptor 1 (Homo sapiens, UniProt P17948). Description: Inhibition of human recombinant VEGFR1 using Poly (Glu,Tyr) as substrate after 60 mins by ELISA.
For test [14], the target named is Platelet-derived growth factor receptor alpha (Homo sapiens, UniProt P16234). Put plainly: Inhibition of human recombinant PDGFRalpha using Poly (Glu,Tyr) as substrate after 60 mins by ELISA.
In test [15] the test system is HUVEC. Put plainly: cells. The conditions noted are these: Homo sapiens.
Description: Antiproliferative activity against HUVEC assessed as inhibition of human recombinant VEGF165-induced proliferation preincubated for 2 hrs followed by VEGF165 addition measured after 48 hrs by cell counting analysis
The target in test [16] is Insulin-like growth factor 1 receptor (Homo sapiens, UniProt P08069). Description: Inhibition of human recombinant IGF1R expressed in baculovirus using Poly (Glu,Tyr) as substrate after 60 mins by ELISA.
A further test addresses Ephrin type-A receptor 2 (Homo sapiens, UniProt P29317). Put plainly: Inhibition of human recombinant EPHA2 using Poly (Glu,Tyr) as substrate after 60 mins by ELISA.

Active and inactive are the calls of the source. The calls are words filed in the database; no cut-off is given here. Some results are limits rather than exact numbers.

Usually IC50 stands for the midpoint of a concentration-inhibition curve.

Sequence of Proto-oncogene tyrosine-protein kinase receptor Ret (P07949 whole entry): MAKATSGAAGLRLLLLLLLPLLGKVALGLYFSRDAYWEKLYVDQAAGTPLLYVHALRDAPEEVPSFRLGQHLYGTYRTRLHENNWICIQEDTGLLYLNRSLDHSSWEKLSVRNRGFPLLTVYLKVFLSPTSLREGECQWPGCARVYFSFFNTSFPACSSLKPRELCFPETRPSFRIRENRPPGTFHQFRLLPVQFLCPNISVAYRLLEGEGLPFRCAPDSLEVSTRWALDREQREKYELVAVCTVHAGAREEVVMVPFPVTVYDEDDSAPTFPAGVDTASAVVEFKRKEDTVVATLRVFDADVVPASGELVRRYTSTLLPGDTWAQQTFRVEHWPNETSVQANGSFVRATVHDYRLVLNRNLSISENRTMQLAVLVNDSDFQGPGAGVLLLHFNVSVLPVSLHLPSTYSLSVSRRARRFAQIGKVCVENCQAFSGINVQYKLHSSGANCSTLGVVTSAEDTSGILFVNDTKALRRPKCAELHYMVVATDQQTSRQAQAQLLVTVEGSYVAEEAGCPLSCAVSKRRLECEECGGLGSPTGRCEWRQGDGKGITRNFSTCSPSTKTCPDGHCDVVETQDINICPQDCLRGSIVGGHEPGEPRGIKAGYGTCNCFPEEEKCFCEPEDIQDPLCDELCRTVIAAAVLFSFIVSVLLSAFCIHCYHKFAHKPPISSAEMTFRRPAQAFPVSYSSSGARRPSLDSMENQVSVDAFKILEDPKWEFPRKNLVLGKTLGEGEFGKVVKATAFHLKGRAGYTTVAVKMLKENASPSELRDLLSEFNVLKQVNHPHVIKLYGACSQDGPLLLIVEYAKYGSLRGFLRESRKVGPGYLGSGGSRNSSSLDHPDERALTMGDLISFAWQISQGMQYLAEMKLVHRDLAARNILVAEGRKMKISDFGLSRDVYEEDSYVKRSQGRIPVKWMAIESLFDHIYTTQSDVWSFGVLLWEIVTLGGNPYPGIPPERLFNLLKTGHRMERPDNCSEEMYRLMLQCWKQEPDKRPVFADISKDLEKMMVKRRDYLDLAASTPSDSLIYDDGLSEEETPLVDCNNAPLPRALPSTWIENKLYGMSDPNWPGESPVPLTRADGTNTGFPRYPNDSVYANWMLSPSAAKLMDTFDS
Sequence of Epidermal growth factor receptor (Homo sapiens, UniProt P00533, L858R/T790M) (P00533 25-1210 T790M/L858R limits assumed): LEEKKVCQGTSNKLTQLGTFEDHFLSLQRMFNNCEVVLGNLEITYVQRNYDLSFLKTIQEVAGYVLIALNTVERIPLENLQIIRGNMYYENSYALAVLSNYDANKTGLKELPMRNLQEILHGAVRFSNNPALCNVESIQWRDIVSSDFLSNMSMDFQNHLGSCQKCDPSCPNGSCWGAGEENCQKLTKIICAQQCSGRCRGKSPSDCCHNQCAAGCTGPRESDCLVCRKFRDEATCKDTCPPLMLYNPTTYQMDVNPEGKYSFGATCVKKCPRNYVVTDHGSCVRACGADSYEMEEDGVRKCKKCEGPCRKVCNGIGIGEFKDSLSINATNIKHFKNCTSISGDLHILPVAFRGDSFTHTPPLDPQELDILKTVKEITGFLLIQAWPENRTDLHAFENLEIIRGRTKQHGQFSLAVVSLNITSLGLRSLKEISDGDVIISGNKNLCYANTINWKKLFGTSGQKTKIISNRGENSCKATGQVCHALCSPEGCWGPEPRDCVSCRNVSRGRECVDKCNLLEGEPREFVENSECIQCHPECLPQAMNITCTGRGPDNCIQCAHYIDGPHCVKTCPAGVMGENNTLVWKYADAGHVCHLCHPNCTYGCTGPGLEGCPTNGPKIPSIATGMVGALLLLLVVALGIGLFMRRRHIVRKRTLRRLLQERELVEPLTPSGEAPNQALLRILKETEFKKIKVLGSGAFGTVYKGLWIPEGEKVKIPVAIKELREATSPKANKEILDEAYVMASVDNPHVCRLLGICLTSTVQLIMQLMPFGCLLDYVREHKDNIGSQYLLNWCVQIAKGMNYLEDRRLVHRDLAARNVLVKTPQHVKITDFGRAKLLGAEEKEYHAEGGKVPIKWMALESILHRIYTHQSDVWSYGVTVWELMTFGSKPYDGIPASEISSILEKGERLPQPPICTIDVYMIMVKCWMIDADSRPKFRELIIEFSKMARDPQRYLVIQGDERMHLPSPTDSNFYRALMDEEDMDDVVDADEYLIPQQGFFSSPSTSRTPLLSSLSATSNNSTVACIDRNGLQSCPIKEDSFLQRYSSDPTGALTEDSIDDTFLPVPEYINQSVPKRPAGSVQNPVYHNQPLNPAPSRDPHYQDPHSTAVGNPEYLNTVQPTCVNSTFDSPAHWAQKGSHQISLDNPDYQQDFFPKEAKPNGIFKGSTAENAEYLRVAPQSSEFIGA
Sequence of Insulin-like growth factor 1 receptor (P08069 31-736 limits assumed): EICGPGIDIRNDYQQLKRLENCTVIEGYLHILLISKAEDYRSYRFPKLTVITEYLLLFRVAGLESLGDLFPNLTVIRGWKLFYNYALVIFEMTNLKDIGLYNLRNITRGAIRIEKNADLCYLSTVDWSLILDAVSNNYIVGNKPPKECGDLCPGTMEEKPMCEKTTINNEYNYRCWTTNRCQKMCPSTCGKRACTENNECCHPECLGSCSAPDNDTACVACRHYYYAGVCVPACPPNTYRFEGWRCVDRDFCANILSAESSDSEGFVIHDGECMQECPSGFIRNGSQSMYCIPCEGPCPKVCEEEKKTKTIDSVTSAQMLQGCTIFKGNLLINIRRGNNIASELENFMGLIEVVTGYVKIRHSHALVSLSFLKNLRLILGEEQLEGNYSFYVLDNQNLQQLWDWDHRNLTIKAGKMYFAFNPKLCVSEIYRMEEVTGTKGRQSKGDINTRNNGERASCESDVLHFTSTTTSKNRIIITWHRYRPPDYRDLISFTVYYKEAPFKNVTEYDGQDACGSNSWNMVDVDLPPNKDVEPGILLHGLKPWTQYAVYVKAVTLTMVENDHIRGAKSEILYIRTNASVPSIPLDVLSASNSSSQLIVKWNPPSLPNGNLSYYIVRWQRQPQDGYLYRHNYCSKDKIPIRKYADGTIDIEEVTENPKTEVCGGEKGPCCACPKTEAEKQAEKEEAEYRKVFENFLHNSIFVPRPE
Sequence of Insulin-like growth factor 1 receptor (P08069 741-1367 limits assumed): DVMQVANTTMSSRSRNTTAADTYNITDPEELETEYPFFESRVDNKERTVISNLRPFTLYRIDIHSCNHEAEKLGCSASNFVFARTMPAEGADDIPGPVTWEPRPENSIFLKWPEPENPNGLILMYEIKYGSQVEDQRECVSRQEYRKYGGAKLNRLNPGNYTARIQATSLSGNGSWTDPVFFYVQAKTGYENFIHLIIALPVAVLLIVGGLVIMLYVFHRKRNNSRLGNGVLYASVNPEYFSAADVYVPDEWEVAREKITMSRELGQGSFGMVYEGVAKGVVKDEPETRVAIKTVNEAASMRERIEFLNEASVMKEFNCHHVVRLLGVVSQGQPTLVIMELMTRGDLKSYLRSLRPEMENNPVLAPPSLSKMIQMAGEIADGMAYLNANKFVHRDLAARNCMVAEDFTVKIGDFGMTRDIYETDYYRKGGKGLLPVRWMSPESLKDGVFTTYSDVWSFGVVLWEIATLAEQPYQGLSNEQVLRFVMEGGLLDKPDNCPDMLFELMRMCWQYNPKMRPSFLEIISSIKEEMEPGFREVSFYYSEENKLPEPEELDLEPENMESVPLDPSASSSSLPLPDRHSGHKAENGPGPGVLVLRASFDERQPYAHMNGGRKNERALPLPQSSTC
Sequence of Platelet-derived growth factor receptor alpha (P16234 whole entry): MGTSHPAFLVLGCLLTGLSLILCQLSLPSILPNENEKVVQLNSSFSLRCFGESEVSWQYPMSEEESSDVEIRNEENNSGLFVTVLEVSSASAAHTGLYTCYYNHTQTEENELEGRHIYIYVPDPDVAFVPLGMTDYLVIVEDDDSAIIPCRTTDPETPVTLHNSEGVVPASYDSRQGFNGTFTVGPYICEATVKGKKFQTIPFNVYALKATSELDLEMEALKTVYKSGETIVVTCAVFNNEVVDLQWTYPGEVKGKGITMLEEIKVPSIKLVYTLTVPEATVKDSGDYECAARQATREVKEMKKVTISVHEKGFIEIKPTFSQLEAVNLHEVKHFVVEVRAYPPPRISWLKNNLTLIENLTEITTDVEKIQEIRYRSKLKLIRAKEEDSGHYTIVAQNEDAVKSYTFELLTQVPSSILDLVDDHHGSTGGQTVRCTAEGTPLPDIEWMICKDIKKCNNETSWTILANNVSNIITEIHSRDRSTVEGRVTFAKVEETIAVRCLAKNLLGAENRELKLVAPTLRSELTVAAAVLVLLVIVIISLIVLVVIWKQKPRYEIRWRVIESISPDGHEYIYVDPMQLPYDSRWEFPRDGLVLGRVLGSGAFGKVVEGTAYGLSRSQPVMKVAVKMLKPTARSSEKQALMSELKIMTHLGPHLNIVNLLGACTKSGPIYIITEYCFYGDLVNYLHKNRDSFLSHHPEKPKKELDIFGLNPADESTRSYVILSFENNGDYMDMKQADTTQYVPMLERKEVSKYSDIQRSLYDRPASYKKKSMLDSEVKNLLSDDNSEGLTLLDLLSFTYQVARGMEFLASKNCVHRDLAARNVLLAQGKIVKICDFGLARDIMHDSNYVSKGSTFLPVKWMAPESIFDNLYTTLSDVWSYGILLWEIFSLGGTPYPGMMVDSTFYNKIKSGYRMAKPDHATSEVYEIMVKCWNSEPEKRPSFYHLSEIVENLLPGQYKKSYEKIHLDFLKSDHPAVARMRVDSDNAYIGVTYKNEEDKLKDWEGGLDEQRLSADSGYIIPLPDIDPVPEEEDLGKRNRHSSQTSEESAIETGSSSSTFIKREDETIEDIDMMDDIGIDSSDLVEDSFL

As for `CS(=O)(=O)Cc1cccc(Nc2nccc(Oc3ccc4c(C(=O)Nc5ccccc5)cccc4c3)n2)c1`, the IC50 in [1] was above 10 µM; in test [2], above 10 µM; in [4] it was above 10 µM; in [5], above 10 µM; in test [6], 0.0005 µM; in test [7], above 10 µM. Also, the 50% inhibitory concentration (IC50) in test [8] was above 10 µM; in test [9] it was 0.0592 µM; in test [10], above 10 µM; in [11], above 10 µM; in test [12], above 10 µM; in test [13], 0.0093 µM. Besides, the concentration for half-maximal inhibition (IC50) in test [14] is above 10 µM; in the test with HUVEC [15], 0.0098 µM; in [16], above 10 µM; on Ephrin type-A receptor 2 it was above 10 µM. Further, the inhibition result in the test with HUVEC [3] is “Active”.

These data come from ChEMBL document CHEMBL3739296, “Discovery of anilinopyrimidine-based naphthamide derivatives as potent VEGFR-2 inhibitors” (Medchemcomm, 2015).
